Data on 15 molecules can be found in patent publication US10501460B2, “Heterocyclic compounds and uses thereof” (Plexxikon Inc., priority 2013, dated 2019).

Each structure is given as a SMILES string.

For one experiment, the target named is T1, BRD4-BD1 (44-164) (Homo sapiens, UniProt O60885).
T1 construct: BRD4-BD1 (44-164); made in house; host or cells: E. coli BL21-CodonPlus (DE3)
The experiment is described as follows: Alphascreen binding assay BRD4-BD1 (BRD4 biochemical inhibitory activity). The conditions noted are these: read-out: Biochemical activity (IC50 μM) BRD4(1) H4. On the procedure: Binding of compounds of formula (I) with bromodomain 2, 3 4 was assessed using Alphascreen binding assay. The inhibition of the interaction between bromodomain and its acetylated target protein (Filippakopoulos P et al. 2012) was measured quantitatively using recombinant BRD proteins, an acetylated Histone 4 peptide and AlphaScreen™ technology. In absence of inhibition the BRD protein bound to AlphaScreen™ nickel chelate acceptor beads can interact with the acetylated Histone 4 peptide which is immobilized by the AlphaScreen™ Streptavidin coated beads. This interaction brings donor and acceptor beads in proximity. The close proximity allows the singlet oxygen produced by laser excitation of the donor beads to reach the acceptor beads and generate a luminescence signal. BRD inhibitors result in a decrease in the proximity signal through an inhibition of the BRD—acetylated peptide interaction.
Recombinant human bromodomains containing the N-terminal bromodomain (BRD2-BD1 (71-194), BRD3-BD1 (24-144) and BRD4-BD1 (44-164)) or dual bromodomains (BRD4-BD12 (1-477), BRD4-BD12 (1-472)) were prepared and purified as described in protein expression and purification session. The peptide is human Histone H41-21K5AcK8AcK12AcK16Ac-Biotin (Anaspec Calif., USA).
Protocol for BRD2, BRD3 and BRD4 assay: All components are prepared in buffer composed of 50 mM HEPES pH 7.5, 100 mM NaCl, 0.01% bovine serum albumin (“BSA”), 0.01% Triton X-100, 2 mM dithiothreitol (“DTT”). 7 μL of Bromodomain protein and 7 μL of peptide are added to wells containing 1 μL of various concentrations of test compounds of formula (I) or DMSO vehicle in an Alphaplate (PerkinElmer Ga., USA) and incubated for 1 hour at room temperature. 4 μL donor and acceptor bead mixture is then added with final concentrations of 7.5 μg/ml. 30 minutes after bead addition, Alpha signal is read on the Envision spectrometer ([…]Ex 680 nm, […]Em 520-620 nm). Final concentrations of bromodomain proteins and peptide are as shown below.
All data was normalized to the mean of 16 high and 16 low control wells on each plate. A four parameter curve fit of the following formula was then applied: Y=a+(b−a)/(1+(x/c)^d) Where ‘a’ is the minimum, ‘b’ is the maximum, ‘c’ is the pIC50 and ‘d’ is the Hill slope. Protein Expression and Purification
Recombinant human bromodomains containing the N-terminal bromodomain (BRD2-BD1 (71-194), BRD3-BD1 (24-144) and BRD4-BD1 (44-164)) or dual bromodomains (BRD4-BD12 (1-477), BRD4-BD12 (1-472)) were expressed in E. coli cells (in a modified pET vector) with an N-terminal six-His tag and purified using a combination of both IMAC (Ni-affinity) and size exclusion chromatography steps.
Recombinant BRD proteins were expressed using the E. coli strain BL21-CodonPlus (DE3) (Agilent Technologies Calif., USA). Cells were grown in Terrific Broth (TB) media to an OD600 of 1.2 at 37° C. at which temperature was reduced to 25° C., protein was induced with 1.0 mM ispropyl-β-D-thiogalactopyranoside (“IPTG”) for 12-18 hours and harvested by centrifugation at 8000×g for 20 minutes. Cells were re-suspended in 0.1M K2PO4 pH 8.0, 250 mM NaCl, 10% Glycerol, 0.75% NP-40, 25 mM Imidazole, 5 mM beta-mercaptoethanol (“BME”) with 0.2 mg/ml Lysosyme, 2.0 mM phenylmethanesulfonyl fluoride (“PMSF”), 25 μg/ml DNAse I, incubated on ice for 30 minutes and lyzed with a cell disruptor (MicroFluidics Mass., USA). The lysate was clarified by centrifugation at 20,000×g for 2 hours. The protein was captured with Ni-NTA resin (Life Technologies, USA). Contaminating proteins were washed off with 25 mM Tris-HCl pH 8.3, 250 mM NaCl, 12% Glycerol and 50 mM Imidazole. Following 3× wash steps, protein was eluted step wise using a 50 mM HEPES pH 7.5, 500 mM NaCl and 400 mM Imidazole. The protein was further purified using Gel Filtration column 26/600 Superdex 200 (GE Biosciences NJ, USA) in 50 mM HEPES pH 7.5, 250 mM NaCl. The protein was aliquoted and flash-frozen in liquid Nitrogen. […]
For orientation: In Alpha technology, singlet oxygen from a donor bead excites a nearby acceptor bead.

In another experiment the test system is bromodomain. The experiment is described as follows: Bromodomain cell assays of Example 40 (at least one of them). It counts as cell-based. The conditions noted are these: in at least one of the bromodomain cell assays described in Example 40. The gist of the method:
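Growth inhibition: 3000 MV-4-11, MOLM-13, MM.1S or neuroblastoma cells/well got an 8-point 1:3 series from 10 μM top (0.2% DMSO) for 72 h, then CellTiter-Glo luminescence. Myc reporter: MV-4-11 with E-box firefly luciferase, 24 h exposure, One-Glo luminescence plus CellTiter-Fluo cell count. pIC50 from four-parameter fit.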

As usually defined, the IC50 is the concentration at which inhibition is half-maximal. As for `Cc1noc(C)c1-c1cnc2[nH]c(-c3ccccc3)cc2c1` [P-0001, 3,5-dimethyl-4-(2-phenyl-1H-pyrrolo[2,3-b]pyridin-5-yl)isoxazole], the results for the IC50 at BRD4-BD1 (44-164) and with bromodomain were 1 to 10 µM and less than 10 µM, respectively.
On to `Cc1noc(C)c1-c1ccc2[nH]ccc2c1` [P-0002, 4-(1H-indol-5-yl)-3,5-dimethyl-isoxazole], for which the 50% inhibitory concentration (IC50) at BRD4-BD1 (44-164) was 1 to 10 µM; in the experiment with bromodomain it was less than 10 µM.
Turning to `Cc1noc(C)c1-c1cnc2[nH]cc(C(=O)c3cccnc3)c2c1` [P-0004, [5-(3,5-dimethylisoxazol-4-yl)-1H-pyrrolo[2,3-b]pyridin-3-yl]-(3-pyridyl)methanone], the concentration for half-maximal inhibition (IC50) is 1 to 10 µM on BRD4-BD1 (44-164) and less than 10 µM in the experiment with bromodomain.
For `Cc1noc(C)c1-c1cnc2[nH]c(C)c(C(=O)c3cccnc3)c2c1` [P-0006, [5-(3,5-dimethylisoxazol-4-yl)-2-methyl-1H-pyrrolo [2,3-b]pyridin-3-yl]-(3-pyridyl)methanone], the half-maximal inhibitory concentration (IC50) at BRD4-BD1 (44-164) was 1 to 10 µM; in the experiment on bromodomain it was less than 10 µM.
In the same order, the values of `Cc1noc(C)c1-c1cnc2[nH]c(-c3ccc(F)cc3)c(C(=O)c3cccnc3)c2c1` [P-0008, [5-(3,5-dimethylisoxazol-4-yl)-2-(4-fluorophenyl)-1H-pyrrolo[2,3-b]pyridin-3-yl]-(3-pyridyl)methanone] are 1 to 10 µM and less than 10 µM.
As for `Cc1noc(C)c1-c1ccc2[nH]cc(CCN3CCCC3)c2c1` [P-0010, 3,5-dimethyl-4-[3-(2-pyrrolidin-1-ylethyl)-1H-indol-5-yl]isoxazole], the IC50 at BRD4-BD1 (44-164) is 1 to 10 µM; in the experiment with bromodomain, less than 10 µM.
In the same order, the values of `Cc1noc(C)c1-c1cnc2[nH]cc(Cc3ccc(C(F)(F)F)cc3)c2c1` [P-0015, 3,5-dimethyl-4-[3-[[4-(trifluoromethyl)phenyl]methyl]-1H-pyrrolo[2,3-b]pyridin-5-yl]isoxazole] are 1 to 10 µM and less than 10 µM.
In the same order, the values of `Cc1noc(C)c1-c1cnc2[nH]cc(C(=O)c3ccc(C(F)(F)F)cc3)c2c1` [P-0016, [5-(3,5-dimethylisoxazol-4-yl)-1H-pyrrolo[2,3-b]pyridin-3-yl]-[4-(trifluoromethyl)phenyl]methanone] are 1 to 10 µM and less than 10 µM.
For `Cc1noc(C)c1-c1cnc2cc[nH]c2c1` [P-0018, 3,5-dimethyl-4-(1H-pyrrolo[3,2-b]pyridin-6-yl)isoxazole], the values for the concentration for half-maximal inhibition (IC50) at BRD4-BD1 (44-164) and in the experiment with bromodomain were 1 to 10 µM and less than 10 µM, respectively.
In the same order, the values of `CCc1[nH]c2ncc(-c3c(C)noc3C)cc2c1Cc1cccc(OC(F)(F)F)c1` [P-0050, 4-[2-ethyl-3-[[3-(trifluoromethoxy)phenyl]methyl]-1H-pyrrolo[2,3-b]pyridin-5-yl]-3,5-dimethyl-isoxazole] are 10 to 200 µM and less than 10 µM.
For the molecule `COc1ccccc1S(=O)(=O)n1ccc2ncc(-c3c(C)noc3C)cc21` [P-0065, 4-[1-(2-methoxyphenyl)sulfonylpyrrolo[3,2-b]pyridin-6-yl]-3,5-dimethyl-isoxazole], the figures for the half-inhibitory concentration (IC50) at BRD4-BD1 (44-164) and in the experiment on bromodomain were 1 to 10 µM and less than 10 µM, respectively.
In the same order, the values of `Cc1noc(C)c1-c1cnc2ccn(S(=O)(=O)N3CCCC3)c2c1` [P-0068, 3,5-dimethyl-4-(1-pyrrolidin-1-ylsulfonylpyrrolo [3,2-b]pyridin-6-yl)isoxazole] are 1 to 10 µM and less than 10 µM.
Take `COC(c1c[nH]c2cc(-c3c(C)noc3C)cnc12)C1CC1` (stereo not drawn) [P-0069]: the IC50 on BRD4-BD1 (44-164) is 1 to 10 µM; in the experiment on bromodomain, less than 10 µM.
Regarding `Cc1noc(C)c1-c1cnc2c(CC3CC3)c[nH]c2c1` [P-0070, 4-[3-(cyclopropylmethyl)-1H-pyrrolo[3,2-b]pyridin-6-yl]-3,5-dimethyl-isoxazole], the values for the IC50 on BRD4-BD1 (44-164) and with bromodomain were 1 to 10 µM and less than 10 µM, respectively.
As for `Cc1noc(C)c1-c1cnc2c(I)c[nH]c2c1` [P-0072, 4-(3-iodo-1H-pyrrolo[3,2-b]pyridin-6-yl)-3,5-dimethyl-isoxazole], the IC50 was 1 to 10 µM on BRD4-BD1 (44-164) and less than 10 µM in the experiment on bromodomain.
